Laboratory results published in ChEMBL document CHEMBL5385858, “Identification of novel Pyrrolo[2,3-d]Pyrimidine-based KRAS G12C inhibitors with anticancer effects” (Eur J Med Chem, 2023).
Active and inactive are the calls of the source. The rule behind the calls is not given here.

Assays:
[1] = target: SOS1-KRAS (Homo sapiens, UniProt P01116, G12C); assay: Inhibition of KRAS G12C mutant/SOS1 (unknown origin) interaction incubated for 2 hrs in presence of GTP by HTRF assay; assay type: protein-complex assay
[2] = test system: A549; assay: Antiproliferative activity against human A549 cells harboring KRAS G12S mutant assessed as inhibition of cell proliferation incubated for 3 days by CCK8 assay; assay type: functional, cell-based; settings: A549, 72 h
[3] = test system: NCI-H358; assay: Induction of apoptosis in human NCI-H358 cells assessed as early apoptotic cells at 0.1 uM incubated for 24 hrs by Annexin V-FITC/PI staining based flow cytometry (reference value: 5.4 %); assay type: functional
[4] = test system: NCI-H358; assay: Inhibition of cell invasion in human NCI-H358 cells measured for 24 hrs by transwell assay; assay type: functional, cell-based
[5] = test system: NCI-H358; assay: Induction of apoptosis in human NCI-H358 cells assessed as viable cells at 0.1 uM incubated for 24 hrs by Annexin V-FITC/PI staining based flow cytometry (reference value: 91.4 %); assay type: functional
[6] = test system: NCI-H358; assay: Antiproliferative activity against human NCI-H358 cells harboring KRAS G12C mutant assessed as inhibition of cell proliferation incubated for 3 days by CCK8 assay; assay type: functional, cell-based; settings: NCI-H358, 72 h
[7] = test system: NCI-H1975; assay: Antiproliferative activity against human NCI-H1975 cells harboring wild-type KRAS assessed as inhibition of cell proliferation incubated for 3 days by CCK8 assay; assay type: functional, cell-based; settings: NCI-H1975, 72 h
[8] = test system: NCI-H358; assay: Inhibition of cell migration in human NCI-H358 cells at 0.1 uM measured for 48 hrs by wound scratch assay; assay type: functional, cell-based
[9] = test system: NCI-H358; assay: Induction of apoptosis in human NCI-H358 cells assessed as late apoptotic cells at 0.1 uM incubated for 24 hrs by Annexin V-FITC/PI staining based flow cytometry (reference value: 1.32 %); assay type: functional
[10] = test system: MIA PaCa-2; assay: Antiproliferative activity against human MIA PaCa-2 cells harboring KRAS G12C mutant assessed as inhibition of cell proliferation incubated for 3 days by CCK8 assay; assay type: functional, cell-based; settings: MIA PaCa-2, 72 h
[11] = test system: NCI-H358; assay: Induction of apoptosis in human NCI-H358 cells assessed as necrotic cells at 0.1 uM incubated for 24 hrs by Annexin V-FITC/PI staining based flow cytometry (reference value: 1.88 %); assay type: functional
[12] = test system: NCI-H358; assay: Antitumor activity in human NCI-H358 cells xenografted in BALB/c-nu/nu mouse assessed as tumor growth inhibition at 10 mg/kg, po qd treated for 20 days relative to control; assay type: functional; settings: time 20 day
[13] = test system: NCI-H358; assay: Antiproliferative activity against human NCI-H358 cells harboring KRAS G12C/Y96D mutant assessed as inhibition of cell proliferation incubated for 48 hrs by CCK8 assay; assay type: functional, cell-based

Sequence of SOS1-KRAS (P01116 whole entry G12C, looked up): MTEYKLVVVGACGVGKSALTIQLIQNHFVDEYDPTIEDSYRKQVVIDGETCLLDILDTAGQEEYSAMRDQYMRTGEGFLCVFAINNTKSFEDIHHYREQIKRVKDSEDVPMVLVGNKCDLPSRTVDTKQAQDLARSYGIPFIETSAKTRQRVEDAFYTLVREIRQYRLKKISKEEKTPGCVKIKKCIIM

SMILES | IC50 [1] [µM] | further results
C=CC(=O)N1CCN(c2nc(OCC34CCCN3CCC4)nc3c2cc(-c2cccc4cccc(C)c24)n3C)C[C@@H]1CC#N | 0.34 | 
C=CC(=O)N1CCN(c2nc(OCCN(C(C)C)C(C)C)nc3c2cc(-c2cccc4cccc(C)c24)n3C)C[C@@H]1CC#N | > 10 | 
C=CC(=O)N1CCN(c2nc(N3CCOCC3)nc3c2cc(-c2cccc4cccc(C)c24)n3C)C[C@@H]1CC#N | > 10 | 
C=CC(=O)N1CCN(c2nc(OC[C@@H]3CCCN3C)nc3c2cc(-c2c(C)ccc4c2cnn4C)n3C)C[C@@H]1CC#N | > 10 | 
C=CC(=O)N1CCN(c2nc(N3CCN(C)CC3)nc3c2cc(-c2cccc4cccc(C)c24)n3C)C[C@@H]1CC#N | > 10 | 
C=C(F)C(=O)N1CCN(c2nc(OC[C@@H]3CCCN3C)nc3c2CCN(c2cccc4cccc(Cl)c24)C3)C[C@@H]1CC#N [ADAGRASIB] |  | IC50 [2]: 12.9 µM; Activity [3]: 14.5%; Activity [4]: Dose-Dependent Effect; Activity [5]: 79.9%; IC50 [6]: 20 nM; IC50 [7]: 6.37 µM; Activity [8]: Active; Activity [9]: 4.52%; IC50 [10]: 50 nM; Activity [11]: 1.04%; TGI [12]: 69.3%; inhibition [13]: inactive
C=CC(=O)N1CCN(c2nc(OCCN(C)C)nc3c2cc(-c2cccc4cccc(C)c24)n3C)C[C@@H]1CC#N | > 10 | 
C=CC(=O)N1CCN(c2nc(OC[C@@H]3CCCN3C)nc3c2cc(-c2ccc4[nH]ncc4c2)n3C)C[C@@H]1CC#N | > 10 | 
C=CC(=O)N1CCN(c2nc(NCCN(C)C)nc3c2cc(-c2cccc4cccc(C)c24)n3C)C[C@@H]1CC#N | > 10 | 

Further lines, with some results ahead:

IC50 [1] [µM] | SMILES | further results
> 10 | C=CC(=O)N1CCN(c2nc(OC[C@@H]3CCCN3C)nc3c2cc(-c2c(C)ccc4[nH]ncc24)n3C)C[C@@H]1CC#N | 
1.94 | C=CC(=O)N1CCN(c2nc(OC[C@H]3CCCN3C)nc3c2cc(-c2cccc4cccc(C)c24)n3C)C[C@@H]1CC#N | 
1.54 | C=CC(=O)N1CCN(c2nc(OC[C@@H]3CCCN3C)nc3c2cc(-c2cccc4cccc(C)c24)n3C)C[C@@H]1CC#N | 
> 10 | C=CC(=O)N1CCN(c2nc(OC[C@@H]3CCCN3C)nc3c2cc(-c2cc(OC)cc4ccccc24)n3C)C[C@@H]1CC#N | 
3.24 | C=CC(=O)N1CCN(c2nc(OC[C@@H]3CCCN3C)nc3c2cc(-c2cccc4cccc(O)c24)n3C)C[C@@H]1CC#N | 
2.04 | C=CC(=O)N1CCN(c2nc(OC[C@@H]3CCCN3C)nc3c2cc(-c2cc(O)cc4ccccc24)n3C)C[C@@H]1CC#N | 
> 10 | C=CC(=O)N1CCN(c2nc(OC[C@@H]3CCCN3C)nc3c2cc(-c2cccc4cccc(OC)c24)n3C)C[C@@H]1CC#N | 
